Data: patent publication US4198431A, “Alkyl N-(3-trifluoromethylphenyl)-anthranilate” (Hokuriku Pharmaceutical Co., Ltd., priority 1978, dated 1980)
Read-outs that look alike come from different tables or passages of the source.

Key:
carrageenin edema [1] = assay: Carrageenin edema-preventing effect of ointment, comparison with Bufexamac (Table 3); type: in vivo, rat (Wistar, male); settings: ointment 50 mg applied 3, 2 and 1 hours before carrageenin; for swelling (paw volume increase), 1 hr: control 48%; for swelling (paw volume increase), 2 hr: control 90%, ***p 0.02; for swelling (paw volume increase), 3 hr: control 95%, **p 0.05; for swelling (paw volume increase), 4 hr: control 91%; for swelling (paw volume increase), 5 hr: control 88%
Procedure: The butyl ester of the invention and Bufexamac were further compared in ointment form with respect to the edema-preventing effect thereof. Using eight (8) Wistar male rats, weighing 120 to 140 g., as one grouping, 50 mg. each of the test ointments was applied onto the sole of rear paws 3, 2 and 1 hours before an agent which induced inflammation was administered, after the paw volume at one side was measured. Carrageenin (1%: 0.1 ml.) was subcutaneously administered as the inflammation-inducingagent. Thereafter, the paw volume was again measured every hour over a period of five (5) hours. An edema-preventing rate was determined from the volume prior to administration of the inflammation-inducing agent.

[2] = Acute toxicity (LD50) after oral administration; type: in vivo; settings: mouse, in vivo
Source text: (§1) Using ddY type male mice, acute toxicity (LD50) was examined after oral administration of the methyl, ethyl and butyl esters, respectively.
(§2) In a similar manner, LD50 was examined with regard to the C5 -C8 higher alkyl esters.

ddY type male mice = assay: Acute toxicity (LD50) after oral administration; type: in vivo; settings: oral, mice; comparison with methyl or ethyl ester
Source text: as §1, §2

carrageenin edema [3] = assay: Carrageenin edema-preventing effect, 5% ointment (Table 2); type: in vivo, rat (Wistar, female); settings: for swelling percent (rate of volume increase), 1 hr / preventing rate (rate of edema prevention), 1 hr / swelling percent (rate of volume increase), 2 hr / preventing rate (rate of edema prevention), 2 hr / swelling percent (rate of volume increase), 3 hr / preventing rate (rate of edema prevention), 3 hr / swelling percent (rate of volume increase), 4 hr / preventing rate (rate of edema prevention), 4 hr / swelling percent (rate of volume increase), 5 hr / preventing rate (rate of edema prevention), 5 hr: 5% ointment, 50 mg/rat; for swelling percent (rate of volume increase), 1 hr / swelling percent (rate of volume increase), 2 hr / swelling percent (rate of volume increase), 3 hr / swelling percent (rate of volume increase), 4 hr / swelling percent (rate of volume increase), 5 hr: sole of rear paws; for swelling percent (rate of volume increase), 1 hr: control 37.1%; for preventing rate (rate of edema prevention), 1 hr / preventing rate (rate of edema prevention), 2 hr / preventing rate (rate of edema prevention), 3 hr / preventing rate (rate of edema prevention), 4 hr / preventing rate (rate of edema prevention), 5 hr: calculated in contrast to control; for swelling percent (rate of volume increase), 2 hr: control 74.4%; for swelling percent (rate of volume increase), 3 hr: control 83.9%; for swelling percent (rate of volume increase), 4 hr: control 83.3%; for swelling percent (rate of volume increase), 5 hr: control 80.8%
Procedure: Next, the carrageenin edema-preventing effect [E. Yamazaki, et al., Folia Pharmacologica Japonica, vol. 63, page 302 (1967)] was examined using an ointment containing a five-percent(5%) concentration of active ingredient. Using ten (10) Wistar female rats as one grouping, each test compound was applied at the rate of fifty (50) mg/rat onto the sole of the rear paws […] (30) minutes. After carrageenin was subcutaneously administered (1% carrageenin: 0.1 ml/rat) at the ointment-administered area, the volume was measured over a period of five (5) hours, during which a definite amount (50 mg/rat) of each test compound was administered every hour over a period of four (4) hours after the first measurement of the paw volume. The edema-preventing effect was thus determined in contrast to known compounds. In Table 2 following, the swelling percent (rate of volume increase) is given. The figures in parenthesis indicate the rate of edema prevention which was calculated in contrast to control. In control, carrageenin alone was administered.

[4] = oral, ddY type male mice, 95% confidence limit in parentheses, read-out: LD50 (95% Confidence Limit)

CCCCOc1ccc(CC(=O)NO)cc1 [Bufexamac, reference compound]
preventing rate (edema-preventing rate), 1 hr (carrageenin edema [1]): 10.4%
swelling (paw volume increase), 1 hr (carrageenin edema [1]): 43%
preventing rate (edema-preventing rate), 2 hr (carrageenin edema [1]): 18.9%
swelling (paw volume increase), 2 hr (carrageenin edema [1]): 73%
preventing rate (edema-preventing rate), 3 hr (carrageenin edema [1]): 18.9%
swelling (paw volume increase), 3 hr (carrageenin edema [1]): 76%
preventing rate (edema-preventing rate), 4 hr (carrageenin edema [1]): 16.5%
swelling (paw volume increase), 4 hr (carrageenin edema [1]): 76%
preventing rate (edema-preventing rate), 5 hr (carrageenin edema [1]): 17.2%
swelling (paw volume increase), 5 hr (carrageenin edema [1]): 72%

CCCCOC(=O)c1ccccc1Nc1cccc(C(F)(F)F)c1 [Compound of Invention, n-Butyl N-(3-trifluoromethylphenyl)anthranilate]
LD50 [2, 4]: 3100 mg/kg
LD50 relative to that of the corresponding methyl or ethyl ester (ddY type male mice): 1/2
swelling percent (rate of volume increase), 1 hr (carrageenin edema [3]): 23.5%
preventing rate (rate of edema prevention), 1 hr (carrageenin edema [3]): 36.7%
swelling percent (rate of volume increase), 2 hr (carrageenin edema [3]): 47.3%
preventing rate (rate of edema prevention), 2 hr (carrageenin edema [3]): 36.4%
swelling percent (rate of volume increase), 3 hr (carrageenin edema [3]): 54.8%
preventing rate (rate of edema prevention), 3 hr (carrageenin edema [3]): 34.7%
swelling percent (rate of volume increase), 4 hr (carrageenin edema [3]): 55.5%
preventing rate (rate of edema prevention), 4 hr (carrageenin edema [3]): 33.4%
swelling percent (rate of volume increase), 5 hr (carrageenin edema [3]): 50.0%
preventing rate (rate of edema prevention), 5 hr (carrageenin edema [3]): 38.1%
edema-preventing effect as compared to the known compound (carrageenin edema [3]; versus N-(3-trifluoromethylphenyl)anthranilic acid, Table 2): improved edema-preventing effect
preventing rate (edema-preventing rate), 1 hr (carrageenin edema [1]): 10.4%
swelling (paw volume increase), 1 hr (carrageenin edema [1]): 43%
preventing rate (edema-preventing rate), 2 hr (carrageenin edema [1]): 30%
swelling (paw volume increase), 2 hr (carrageenin edema [1]): 63%
preventing rate (edema-preventing rate), 3 hr (carrageenin edema [1]): 28.4%
swelling (paw volume increase), 3 hr (carrageenin edema [1]): 68%
preventing rate (edema-preventing rate), 4 hr (carrageenin edema [1]): 24.2%
swelling (paw volume increase), 4 hr (carrageenin edema [1]): 69%
preventing rate (edema-preventing rate), 5 hr (carrageenin edema [1]): 22.7%
swelling (paw volume increase), 5 hr (carrageenin edema [1]): 68%

CCCCCCCCOC(=O)c1ccccc1Nc1cccc(C(F)(F)F)c1 [Example 12]
LD50 ([2]; po, n-octyl ester, examined in a similar manner, read-out: LD50): ~5000 mg/kg

COC(=O)c1ccccc1Nc1cccc(C(F)(F)F)c1 [I, Methyl N-(3-trifluoromethylphenyl)anthranilate, reference compound]
LD50 [2, 4]: 1620 mg/kg

CCOC(=O)c1ccccc1Nc1cccc(C(F)(F)F)c1 [II, Ethyl N-(3-trifluoromethylphenyl)anthranilate, reference compound]
LD50 [2, 4]: 1820 mg/kg

O=C(O)c1ccccc1Nc1cccc(C(F)(F)F)c1 [N-(3-trifluoromethylphenyl)anthranilic acid, reference compound]
swelling percent (rate of volume increase), 1 hr (carrageenin edema [3]): 28.4%
preventing rate (rate of edema prevention), 1 hr (carrageenin edema [3]): 23.5%
swelling percent (rate of volume increase), 2 hr (carrageenin edema [3]): 61.8%
preventing rate (rate of edema prevention), 2 hr (carrageenin edema [3]): 16.9%
swelling percent (rate of volume increase), 3 hr (carrageenin edema [3]): 62.3%
preventing rate (rate of edema prevention), 3 hr (carrageenin edema [3]): 25.8%
swelling percent (rate of volume increase), 4 hr (carrageenin edema [3]): 61.4%
preventing rate (rate of edema prevention), 4 hr (carrageenin edema [3]): 26.3%
swelling percent (rate of volume increase), 5 hr (carrageenin edema [3]): 61.2%
preventing rate (rate of edema prevention), 5 hr (carrageenin edema [3]): 24.2%
